Data published in PMC6917776, “Discovery of a chemical probe for PRDM9” (Nature Communications, 2019).
Read-outs that look alike come from different tables or passages of the source.

Experiment: CelltiterGlo viability cell assay
Format: cell-based
Settings: human
Method in brief: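 Seed cells (e.g. MDA-MB-436 at 10000/well), add compound across 0.01 μM–30 μM, incubate 3 or 6 days, then read proliferation with CelltiterGlo. Normalize to DMSO.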

[1] = CAL851 breast cancer cells, CAL851, 3 day, read-out: viability Average
[2] = CAL851 breast cancer cells, CAL851, 3 day, read-out: viability Replicate 1
[3] = CAL851 breast cancer cells, CAL851, 3 day, read-out: viability Replicate 2
[4] = CAL851 breast cancer cells, CAL851, 3 day, read-out: viability Replicate 3
[5] = CAL851 breast cancer cells, CAL851, 6 day, read-out: viability Average
[6] = CAL851 breast cancer cells, CAL851, 6 day, read-out: viability Replicate 1
[7] = CAL851 breast cancer cells, CAL851, 6 day, read-out: viability Replicate 2
[8] = CAL851 breast cancer cells, CAL851, 6 day, read-out: viability Replicate 3
[9] = CAL851 cells, CAL851, 3 day, read-out: viability Replicate 1
[10] = CAL851 cells, CAL851, 3 day, read-out: viability Replicate 2
[11] = HCC1143 breast cancer cells, HCC1143, 3 day, read-out: viability Average
[12] = HCC1143 breast cancer cells, HCC1143, 3 day, read-out: viability Replicate 1
[13] = HCC1143 breast cancer cells, HCC1143, 3 day, read-out: viability Replicate 2
[14] = HCC1143 breast cancer cells, HCC1143, 3 day, read-out: viability Replicate 3

SMILES: COc1cc(OC)cc(-c2noc(N3CCN(C)C4(CCN(c5ccnc(C)c5)CC4)C3)n2)c1 [MRK-740]
- viability at 3 day, 0.01 µM [1]: 95.7%
- viability at 3 day, 0.01 µM [2]: 91.6%
- viability at 3 day, 0.01 µM [3]: 94.6%
- viability at 3 day, 0.01 µM [4]: 101%
- viability at 3 day, 0.03 µM [1]: 94.4%
- viability at 3 day, 0.03 µM [2]: 93.2%
- viability at 3 day, 0.03 µM [3]: 92.2%
- viability at 3 day, 0.03 µM [4]: 97.9%
- viability at 3 day, 0.3 µM [1]: 98.9%
- viability at 3 day, 0.3 µM [4]: 104%
- viability at 3 day, 1 µM [1]: 98%
- viability at 3 day, 1 µM [2]: 88.2%
- viability at 3 day, 1 µM [3]: 93.7%
- viability at 3 day, 1 µM [4]: 112%
- viability at 3 day, 3 µM [1]: 88%
- viability at 3 day, 3 µM [2]: 88.9%
- viability at 3 day, 3 µM [3]: 78.6%
- viability at 3 day, 3 µM [4]: 96.5%
- viability at 3 day, 9.5 µM [1]: 72%
- viability at 3 day, 9.5 µM [2]: 69.7%
- viability at 3 day, 9.5 µM [3]: 68.9%
- viability at 3 day, 9.5 µM [4]: 77.4%
- viability at 3 day, 30 µM [1]: 21.2%
- viability at 3 day, 30 µM [2]: 18.4%
- viability at 3 day, 30 µM [3]: 24.5%
- viability at 3 day, 30 µM [4]: 20.7%
- viability at 6 day, 0.01 µM [5]: 113%
- viability at 6 day, 0.01 µM [6]: 109%
- viability at 6 day, 0.01 µM [7]: 118%
- viability at 6 day, 0.01 µM [8]: 113%
- viability at 6 day, 0.03 µM [5]: 114%
- viability at 6 day, 0.03 µM [6]: 103%
- viability at 6 day, 0.03 µM [7]: 114%
- viability at 6 day, 0.03 µM [8]: 126%
- viability at 6 day, 0.1 µM [5]: 129%
- viability at 6 day, 0.1 µM [6]: 116%
- viability at 6 day, 0.1 µM [7]: 126%
- viability at 6 day, 0.1 µM [8]: 145%
- viability at 6 day, 0.3 µM [5]: 118%
- viability at 6 day, 0.3 µM [6]: 121%
- viability at 6 day, 0.3 µM [7]: 117%
- viability at 6 day, 0.3 µM [8]: 115%
- viability at 6 day, 1 µM [5]: 117%
- viability at 6 day, 1 µM [6]: 109%
- viability at 6 day, 1 µM [7]: 108%
- viability at 6 day, 1 µM [8]: 134%
- viability at 6 day, 3 µM [5]: 100%
- viability at 6 day, 3 µM [6]: 93.2%
- viability at 6 day, 3 µM [7]: 104%
- viability at 6 day, 3 µM [8]: 104%
- viability at 6 day, 9.5 µM [5]: 73.1%
- viability at 6 day, 9.5 µM [6]: 59.9%
- viability at 6 day, 9.5 µM [7]: 75.6%
- viability at 6 day, 9.5 µM [8]: 83.9%
- viability at 6 day, 30 µM [5]: 14.9%
- viability at 6 day, 30 µM [6]: 22.8%
- viability at 6 day, 30 µM [7]: 11.9%
- viability at 6 day, 30 µM [8]: 10%
- viability at 3 day, 0.1 µM (CAL851 cells, CAL851, 3 day, read-out: viability Average): 99.9%
- viability at 3 day, 0.1 µM [9]: 97.5%
- viability at 3 day, 0.1 µM [10]: 91.8%
- viability at 3 day, 0.1 µM (CAL851 cells, CAL851, 3 day, read-out: viability Replicate 3): 111%
- viability at 3 day, 0.3 µM [9]: 94.7%
- viability at 3 day, 0.3 µM [10]: 97.8%
- viability at 3 day, 0.01 µM [11]: 96.2%
- viability at 3 day, 0.01 µM [12]: 100%
- viability at 3 day, 0.01 µM [13]: 94.8%
- viability at 3 day, 0.01 µM [14]: 93.8%
- viability at 3 day, 0.03 µM [11]: 94.8%
- viability at 3 day, 0.03 µM [12]: 92.9%
- viability at 3 day, 0.03 µM [13]: 94.1%
- viability at 3 day, 0.03 µM [14]: 97.3%
- viability at 3 day, 0.3 µM [11]: 98.1%
- viability at 3 day, 0.3 µM [12]: 99.7%
- viability at 3 day, 0.3 µM [13]: 97.7%
- viability at 3 day, 0.3 µM [14]: 96.9%
- viability at 3 day, 1 µM [11]: 97.8%
- viability at 3 day, 1 µM [12]: 101%
- viability at 3 day, 1 µM [13]: 93.9%
- viability at 3 day, 1 µM [14]: 98.8%
- viability at 3 day, 3 µM [11]: 92.9%
- viability at 3 day, 3 µM [12]: 94.7%
- viability at 3 day, 3 µM [13]: 91%
- viability at 3 day, 3 µM [14]: 93%
- viability at 3 day, 9.5 µM [11]: 71.7%
- viability at 3 day, 9.5 µM [12]: 73.8%
- viability at 3 day, 9.5 µM [13]: 69.4%
- viability at 3 day, 9.5 µM [14]: 72%
- viability at 3 day, 30 µM [11]: 25.7%
- viability at 3 day, 30 µM [12]: 27.4%
- viability at 3 day, 30 µM [13]: 27.1%
- viability at 3 day, 30 µM [14]: 22.6%
- viability at 6 day, 0.03 µM (HCC1143 breast cancer cells, HCC1143, 6 day, read-out: viability Average): 101%
- viability at 6 day, 0.03 µM (HCC1143 breast cancer cells, HCC1143, 6 day, read-out: viability Replicate 1): 96.8%
- viability at 6 day, 0.03 µM (HCC1143 breast cancer cells, HCC1143, 6 day, read-out: viability Replicate 2): 101%
